Earlier results in patent US20240299301A1, “LIPID NANOPARTICLES AND METHOD FOR PREPARING SAME” (THERNA THERAPEUTICS, priority 2021, published 2024).

CCCCC/C=C\C/C=C\CCCCCCCCC(CCCCCCCC/C=C\C/C=C\CCCCC)OC(=O)CCCN(C)C [DLin-MC3-DMA, (6Z, 9Z, 28Z, 31Z)-heptatriaconta 6,9,28,31-tetraen-19-yl 4-(dimethylamino)butanoate]
pKa of the amine group: about 6.5
